The record followed here is US9636339B2, “Phenyl-dihydropyridine derivatives as aldosterone synthase inhibitors” (Hoffmann-La Roche Inc., priority 2013, dated 2017).

One assay deals with human CYP11B1 (Homo sapiens (Human), UniProt P15538). The experiment in a line: G-402 cellular enzyme assay, human CYP11B1 (cortisol release). It is filed as cell-based. The following applies: G-402 cells, 1 μM Deoxycortisol. From the text: (§1) Herein we identified the use of the G-402 cell line as a host cell to ectopically express (transiently or stably) enzymes of the CYP11 family. Specifically we developed stable G-402 cells expressing ectopically human CYP11B1, human CYP11B2, human CYP11A1, cynmolgus CYP11B1 or cynomolgus CYP11B2 enzyme activity. Importantly the identified cell line G-402 expresses co-factors (adrenodoxin and adrenodoxin reductase) important for the activity of the CYP11 family and no relevant enzyme activity of the CYP11 family (in comparison to H295R cells) was detected in these cells. Therefore the G-402 cell line is uniquely suited as a host cell for the ectopic expression of enzymes from the CYP11 family. G-402 cells can be obtained from ATCC (CRL-1440) and were originally derived from a renal leiomyoblastoma.
(§2) The expression plasmids contains the ORF for either human/cyno CYP11B1 or CYP11B2 under the control of a suitable promoter (CMV-promoter) and a suitable resistance marker (neomycin). Using standard techniques the expression plasmid is transfected into G-402 cells and these cells are then selected for expressing the given resistance markers. Individual cell-clones are then selected and assessed for displaying the desired enzymatic activity using 11-Deoxycorticosterone (Cyp11B2) or 11-Deoxycortisol (Cyp11B1) as a substrate.
(§3) G-402 cells expressing CYP11 constructs were established as described above and maintained in McCoy's 5a Medium Modified, ATCC Catalog No. 30-2007 containing 10% FCS and 400 μg/ml G418 (Geneticin) at 37° C. under an atmosphere of 5% CO2/95% air. Cellular enzyme assays were performed in DMEM/F12 medium containing 2.5% charcoal treated FCS and appropriate concentration of substrate (0.3-10 uM 11-Deoxycorticosterone, 11-Deoxycortisol or Corticosterone). For assaying enzymatic activity, cells were plated onto 96 well plates and incubated for 16 h. An aliquot of the supernatant is then transferred and analyzed for the concentration of the expected product (Aldosterone for CYP11B2; Cortisol for CYP11B1). The concentrations of these steroids can be determined using HTRF assays from CisBio analyzing either Aldosterone or Cortisol.
(§4) Inhibition of the release of produced steroids can be used as a measure of the respective enzyme inhibition by test compounds added during the cellular enzyme assay. The dose dependent inhibition of enzymatic activity by a compound is calculated by means of plotting added inhibitor concentrations (x-axes) vs. measured steroid/product level (y-axes). The inhibition is then calculated by fitting the following 4-parameter sigmoidal function (Morgan-Mercer-Flodin (MMF) model) to the raw data points using the least squares method:
(§5) [formula] wherein, A is the maximum y value, B is the EC50 factor determined using XLFit, C is the minimum y value and D is the slope value.
(§6) EC50 values for compounds claimed herein were tested with the G402-based assay system described. Cyp11B2 enzyme activity was tested in presence of 1 μM Deoxycorticosterone and variable amounts of inhibitors; Cyp11B1 enzyme activity was tested in presence of 1 μM Deoxycortisol and variable amounts of inhibitors.

For the next assay, the target named is human CYP11B2 (Homo sapiens (Human), UniProt P19099). Description: G-402 cellular enzyme assay, human CYP11B2 (aldosterone release). It is filed as cell-based. The following applies: G-402 cells, 1 μM Deoxycorticosterone.
Source text: as §1, §2, §3, §4, §5, §6

human CYP11B2, sequence (P19099 25-503): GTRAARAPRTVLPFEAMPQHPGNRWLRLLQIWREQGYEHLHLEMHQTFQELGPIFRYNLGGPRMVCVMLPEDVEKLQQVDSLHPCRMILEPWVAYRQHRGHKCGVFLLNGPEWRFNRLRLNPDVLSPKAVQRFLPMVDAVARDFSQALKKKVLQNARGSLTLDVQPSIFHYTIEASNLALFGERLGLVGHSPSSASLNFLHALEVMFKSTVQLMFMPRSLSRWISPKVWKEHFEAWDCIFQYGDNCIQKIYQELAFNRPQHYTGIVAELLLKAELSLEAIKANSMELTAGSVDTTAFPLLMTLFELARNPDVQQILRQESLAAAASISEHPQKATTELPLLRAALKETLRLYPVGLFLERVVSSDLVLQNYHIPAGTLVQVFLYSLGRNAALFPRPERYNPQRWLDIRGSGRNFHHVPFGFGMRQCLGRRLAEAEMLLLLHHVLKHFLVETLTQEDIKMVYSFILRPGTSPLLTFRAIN
human CYP11B1, sequence (P15538 25-503): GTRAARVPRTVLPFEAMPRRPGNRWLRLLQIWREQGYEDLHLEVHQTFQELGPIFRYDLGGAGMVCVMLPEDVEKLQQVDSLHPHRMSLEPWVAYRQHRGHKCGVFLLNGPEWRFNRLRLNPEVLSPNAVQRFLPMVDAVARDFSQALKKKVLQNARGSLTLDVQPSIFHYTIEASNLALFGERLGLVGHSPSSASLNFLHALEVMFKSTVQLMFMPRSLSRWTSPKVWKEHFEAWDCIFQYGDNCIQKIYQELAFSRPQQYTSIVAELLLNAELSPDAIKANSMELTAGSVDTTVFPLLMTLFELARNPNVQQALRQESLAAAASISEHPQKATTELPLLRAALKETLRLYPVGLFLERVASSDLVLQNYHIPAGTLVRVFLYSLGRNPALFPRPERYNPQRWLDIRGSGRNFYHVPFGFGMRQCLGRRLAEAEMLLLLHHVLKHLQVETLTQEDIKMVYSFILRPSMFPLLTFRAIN

Turning to `CCOC(=O)CC1CCc2c(-c3ccc(C(F)(F)F)c(F)c3)cncc21` (racemic) [Example 1, (rac)-Ethyl 2-[4-[3-fluoro-4-(trifluoromethyl)phenyl]-6,7-dihydro-5H-cyclopenta[c]pyridin-7-yl]acetate], the half-maximal effective concentration (EC50) (as a rule, the concentration at which the effect is half-maximal) on human CYP11B1 was found to be 84 nM; at human CYP11B2, 9 nM.

Take `CNC(=O)CC1CCc2c(-c3ccc(C(F)(F)F)c(F)c3)cncc21` (racemic) [Example 2, (rac)-2-[4-[3-Fluoro-4-(trifluoromethyl)phenyl]-6,7-dihydro-5H-cyclopenta[c]pyridin-7-yl]-N-methyl-acetamide]: the half-maximal effective concentration (EC50) worked out at 199 nM on human CYP11B1 and 17 nM on human CYP11B2.

Regarding `CCNC(=O)CC1CCc2c(-c3ccc(C(F)(F)F)c(F)c3)cncc21` (racemic) [Example 3, (rac)-2-[4-[3-Fluoro-4-(trifluoromethyl)phenyl]-6,7-dihydro-5H-cyclopenta[c]pyridin-7-yl]-N-ethyl-acetamide], the EC50 at human CYP11B1 came to 69 nM; on human CYP11B2, 13 nM.

As for `CCCNC(=O)CC1CCc2c(-c3ccc(C(F)(F)F)c(F)c3)cncc21` (racemic) [Example 4, (rac)-2-[4-[3-Fluoro-4-(trifluoromethyl)phenyl]-6,7-dihydro-5H-cyclopenta[c]pyridin-7-yl]-N-propyl-acetamide], the EC50 at human CYP11B1 came out at 112 nM; on human CYP11B2, 21 nM.

In the case of `O=C(CC1CCc2c(-c3ccc(C(F)(F)F)c(F)c3)cncc21)NC1CC1` (racemic) [Example 5, (rac)-N-Cyclopropyl-2-[4-[3-fluoro-4-(trifluoromethyl)phenyl]-6,7-dihydro-5H-cyclopenta[c]pyridin-7-yl]acetamide], the concentration for a half-maximal effect (EC50) on human CYP11B1 worked out at 217 nM; at human CYP11B2, 13 nM.

On to `O=C(CC1CCc2c(-c3ccc(C(F)(F)F)c(F)c3)cncc21)NCC1CC1` (racemic) [Example 6, (rac)-N-(Cyclopropylmethyl)-2-[4-[3-fluoro-4-(trifluoromethyl)phenyl]-6,7-dihydro-5H-cyclopenta[c]pyridin-7-yl]acetamide], for which the half-maximal effective concentration (EC50) at human CYP11B1 was 331 nM; on human CYP11B2, 24 nM.

On to `COCCNC(=O)CC1CCc2c(-c3ccc(C(F)(F)F)c(F)c3)cncc21` (racemic) [Example 7, (rac)-2-[4-[3-Fluoro-4-(trifluoromethyl)phenyl]-6,7-dihydro-5H-cyclopenta[c]pyridin-7-yl]-N-(2-methoxyethyl)acetamide], for which the concentration giving a half-maximal response (EC50) was found to be 582 nM at human CYP11B1 and 32 nM at human CYP11B2.

As to `O=C(CC1CCc2c(-c3ccc(C(F)(F)F)c(F)c3)cncc21)N1CCCCC1` (racemic) [Example 8, (rac)-2-[4-[3-Fluoro-4-(trifluoromethyl)phenyl]-6,7-dihydro-5H-cyclopenta[c]pyridin-7-yl]-1-(1-piperidyl)ethanone], the half-maximal effective concentration (EC50) at human CYP11B1 worked out at 10 nM; on human CYP11B2, 2 nM.

Turning to `O=C(CC1CCc2c(-c3ccc(C(F)(F)F)c(F)c3)cncc21)N1CCOCC1` (racemic) [Example 9, (rac)-2-[4-[3-Fluoro-4-(trifluoromethyl)phenyl]-6,7-dihydro-5H-cyclopenta[c]pyridin-7-yl]-1-morpholino-ethanone], the EC50 at human CYP11B1 came to 152 nM; at human CYP11B2 it was 20 nM.

For `O=C(CC1CCc2c(-c3ccc(C(F)(F)F)c(F)c3)cncc21)Nc1ccon1` (racemic) [Example 10, (rac)-2-[4-[3-Fluoro-4-(trifluoromethyl)phenyl]-6,7-dihydro-5H-cyclopenta[c]pyridin-7-yl]-N-isoxazol-3-yl-acetamide], the EC50 on human CYP11B1 was found to be 180 nM; on human CYP11B2 it was 17 nM.

Take `O=C(CC1CCc2c(-c3ccc(C(F)(F)F)c(F)c3)cncc21)Nc1cc[nH]n1` (racemic) [Example 11, (rac)-2-[4-[3-Fluoro-4-(trifluoromethyl)phenyl]-6,7-dihydro-5H-cyclopenta[c]pyridin-7-yl]-N-(1H-pyrazol-3-yl)acetamide]: the EC50 was determined as 30 nM on human CYP11B1 and 8 nM on human CYP11B2.

As to `CN(C)C(=O)CC1CCc2c(-c3ccc(C(F)(F)F)cc3F)cncc21` (racemic) [Example 13, (rac)-2-[4-[2-Fluoro-4-(trifluoromethyl)phenyl]-6,7-dihydro-5H-cyclopenta[c]pyridin-7-yl]-N,N-dimethyl-acetamide], the EC50 at human CYP11B1 turned out to be 9370 nM; at human CYP11B2 it was 67 nM.

As for `CCN(C)C(=O)CC1CCc2c(-c3ccc(C(F)(F)F)cc3F)cncc21` (racemic) [Example 14, (rac)-N-Ethyl-2-[4-[2-fluoro-4-(trifluoromethyl)phenyl]-6,7-dihydro-5H-cyclopenta[c]pyridin-7-yl]-N-methyl-acetamide], the EC50 at human CYP11B1 was found to be 2120 nM; on human CYP11B2, 44 nM.

Take `CC(C)N(C)C(=O)CC1CCc2c(-c3ccc(C(F)(F)F)cc3F)cncc21` (racemic) [Example 15, (rac)-2-[4-[2-Fluoro-4-(trifluoromethyl)phenyl]-6,7-dihydro-5H-cyclopenta[c]pyridin-7-yl]-N-isopropyl-N-methyl-acetamide]: the values for the EC50 at human CYP11B1 and on human CYP11B2 were 1310 nM and 18 nM, respectively.

For the compound `CN(C(=O)CC1CCc2c(-c3ccc(C(F)(F)F)cc3F)cncc21)C1CC1` (racemic) [Example 16, (rac)-N-Cyclopropyl-2-[4-[2-fluoro-4-(trifluoromethyl)phenyl]-6,7-dihydro-5H-cyclopenta[c]pyridin-7-yl]-N-methyl-acetamide], the figures for the concentration for a half-maximal effect (EC50) at human CYP11B1 and at human CYP11B2 were 211 nM and 6 nM, respectively.

Regarding `CCN(C(=O)CC1CCc2c(-c3ccc(C(F)(F)F)cc3F)cncc21)C1CC1` (racemic) [Example 17, (rac)-N-Cyclopropyl-N-ethyl-2-[4-[2-fluoro-4-(trifluoromethyl)phenyl]-6,7-dihydro-5H-cyclopenta[c]pyridin-7-yl]acetamide], the EC50 is 745 nM at human CYP11B1 and 29 nM at human CYP11B2.

`O=C(CC1CCc2c(-c3ccc(C(F)(F)F)cc3F)cncc21)N1CCC1` (racemic) [Example 18, (rac)-1-(Azetidin-1-yl)-2-[4-[2-fluoro-4-(trifluoromethyl)phenyl]-6,7-dihydro-5H-cyclopenta[c]pyridin-7-yl]ethanone]: the concentration for a half-maximal effect (EC50) on human CYP11B1 is 2680 nM; at human CYP11B2, 48 nM.

Consider `O=C(CC1CCc2c(-c3ccc(C(F)(F)F)cc3F)cncc21)N1CC(CO)C1` (racemic) [Example 19, (rac)-2-[4-[2-Fluoro-4-(trifluoromethyl)phenyl]-6,7-dihydro-5H-cyclopenta[c]pyridin-7-yl]-1-[3-(hydroxymethyl)azetidin-1-yl]ethanone], for which the EC50 at human CYP11B1 amounted to 1160 nM; at human CYP11B2 it was 45 nM.

For `COC1CN(C(=O)CC2CCc3c(-c4ccc(C(F)(F)F)cc4F)cncc32)C1` (racemic) [Example 20, (rac)-2-[4-[2-Fluoro-4-(trifluoromethyl)phenyl]-6,7-dihydro-5H-cyclopenta[c]pyridin-7-yl]-1-(3-methoxyazetidin-1-yl)ethanone], the EC50 on human CYP11B1 is 1490 nM; at human CYP11B2, 53 nM.

Turning to `O=C(CC1CCc2c(-c3ccc(C(F)(F)F)cc3F)cncc21)N1CCCC1` (racemic) [Example 21, (rac)-2-[4-[2-Fluoro-4-(trifluoromethyl)phenyl]-6,7-dihydro-5H-cyclopenta[c]pyridin-7-yl]-1-pyrrolidin-1-yl-ethanone], the concentration giving a half-maximal response (EC50) on human CYP11B1 was determined as 507 nM; at human CYP11B2 it was 12 nM.

Regarding `C[C@H]1CCCN1C(=O)CC1CCc2c(-c3ccc(C(F)(F)F)cc3F)cncc21` (mixture of isomers) [Example 22, (rac)-2-[4-[2-Fluoro-4-(trifluoromethyl)phenyl]-6,7-dihydro-5H-cyclopenta[c]pyridin-7-yl]-1-[(2S)-2-methylpyrrolidin-1-yl]ethanone], the 50% effective concentration (EC50) stood at 278 nM at human CYP11B1 and 6 nM on human CYP11B2.

As to `CCOC(=O)CC1CCCc2c(-c3ccc(C(F)(F)F)cc3F)cncc21` (racemic) [Example 23, (rac)-Ethyl 2-[4-[2-fluoro-4-(trifluoromethyl)phenyl]-5,6,7,8-tetrahydroisoquinolin-8-yl]acetate], the figures for the EC50 at human CYP11B1 and at human CYP11B2 were 1890 nM and 27 nM, respectively.
